Assay results published in ChEMBL document CHEMBL5584244, “Discovery of novel pyrrolo[2,1-c][1,4]benzodiazepine-3,11-dione (PBD) derivatives as selective HDAC6 inhibitors for the efficient treatment of idiopathic pulmonary fibrosis (IPF) in vitro and in vivo” (Eur J Med Chem, 2024).

What was measured:
[1] = molecular target: T1, Protein deacetylase HDAC6 (Homo sapiens, UniProt Q9UBN7); test: Inhibition of recombinant human full length HDAC6 using Boc-Lys (Ac)-AMC as substrate incubated for 120 mins by fluorescence analysis
T1 sequence (Q9UBN7 whole entry): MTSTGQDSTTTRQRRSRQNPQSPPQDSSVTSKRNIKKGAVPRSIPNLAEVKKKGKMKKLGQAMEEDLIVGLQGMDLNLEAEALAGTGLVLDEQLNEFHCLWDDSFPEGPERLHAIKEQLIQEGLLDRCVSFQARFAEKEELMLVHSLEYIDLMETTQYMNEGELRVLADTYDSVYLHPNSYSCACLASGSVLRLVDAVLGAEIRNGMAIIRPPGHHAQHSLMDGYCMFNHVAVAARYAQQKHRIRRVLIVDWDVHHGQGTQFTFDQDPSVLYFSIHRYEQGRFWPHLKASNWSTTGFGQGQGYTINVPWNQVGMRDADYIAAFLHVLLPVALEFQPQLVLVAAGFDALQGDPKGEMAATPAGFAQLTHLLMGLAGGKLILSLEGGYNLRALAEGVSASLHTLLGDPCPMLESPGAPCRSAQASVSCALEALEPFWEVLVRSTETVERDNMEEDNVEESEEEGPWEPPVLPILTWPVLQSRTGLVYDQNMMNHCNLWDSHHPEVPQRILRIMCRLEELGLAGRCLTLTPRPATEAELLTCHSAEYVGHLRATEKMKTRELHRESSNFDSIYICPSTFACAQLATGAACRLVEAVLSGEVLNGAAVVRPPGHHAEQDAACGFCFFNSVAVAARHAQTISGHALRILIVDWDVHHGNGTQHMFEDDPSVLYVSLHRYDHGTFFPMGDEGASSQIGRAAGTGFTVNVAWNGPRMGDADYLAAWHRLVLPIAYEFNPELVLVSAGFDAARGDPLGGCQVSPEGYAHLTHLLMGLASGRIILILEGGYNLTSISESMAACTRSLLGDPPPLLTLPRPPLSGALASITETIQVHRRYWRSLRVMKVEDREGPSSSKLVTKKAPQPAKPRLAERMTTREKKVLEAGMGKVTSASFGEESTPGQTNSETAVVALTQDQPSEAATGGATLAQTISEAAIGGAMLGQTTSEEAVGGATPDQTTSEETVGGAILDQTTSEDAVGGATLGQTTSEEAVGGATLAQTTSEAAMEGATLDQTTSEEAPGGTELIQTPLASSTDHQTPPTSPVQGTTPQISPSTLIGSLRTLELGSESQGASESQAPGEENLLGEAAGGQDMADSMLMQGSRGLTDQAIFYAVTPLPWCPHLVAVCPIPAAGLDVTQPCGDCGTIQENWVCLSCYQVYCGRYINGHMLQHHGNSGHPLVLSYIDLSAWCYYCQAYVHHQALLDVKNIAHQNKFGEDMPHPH

[2] = species on record: Homo sapiens; test: Selectivity index, ratio IC50 for C-terminal His6/Flag-tagged recombinant human full length HDAC1 to IC50 for inhibition of recombinant human full length HDAC6
[3] = molecular target: Histone deacetylase 1 (Homo sapiens, UniProt Q13547); test: Inhibition of C-terminal His6/Flag-tagged recombinant human full length HDAC1 using Boc-Lys (Ac)-AMC as substrate incubated for 120 mins by fluorescence analysis
Sequence of Histone deacetylase 1 (Q13547 whole entry): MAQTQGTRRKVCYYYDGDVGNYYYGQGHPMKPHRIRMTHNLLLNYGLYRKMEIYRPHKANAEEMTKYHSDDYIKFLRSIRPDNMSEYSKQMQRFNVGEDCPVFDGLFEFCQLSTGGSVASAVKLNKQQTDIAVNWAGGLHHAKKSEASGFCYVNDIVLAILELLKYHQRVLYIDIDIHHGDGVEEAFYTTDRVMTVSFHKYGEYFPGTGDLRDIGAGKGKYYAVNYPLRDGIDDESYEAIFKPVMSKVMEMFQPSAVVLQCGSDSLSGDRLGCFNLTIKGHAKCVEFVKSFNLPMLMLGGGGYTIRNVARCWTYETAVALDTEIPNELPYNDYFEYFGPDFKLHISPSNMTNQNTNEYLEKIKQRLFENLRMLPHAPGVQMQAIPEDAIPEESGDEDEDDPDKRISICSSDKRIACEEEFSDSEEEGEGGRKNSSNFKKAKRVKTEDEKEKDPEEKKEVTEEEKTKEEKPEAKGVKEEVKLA

[4] = molecular target: Histone deacetylase 2 (Homo sapiens, UniProt Q92769); test: Inhibition of recombinant human full length HDAC2 using Boc-Lys (Ac)-AMC as substrate incubated for 120 mins by fluorescence analysis
Sequence of Histone deacetylase 2 (Q92769 whole entry, the tested form may be a part): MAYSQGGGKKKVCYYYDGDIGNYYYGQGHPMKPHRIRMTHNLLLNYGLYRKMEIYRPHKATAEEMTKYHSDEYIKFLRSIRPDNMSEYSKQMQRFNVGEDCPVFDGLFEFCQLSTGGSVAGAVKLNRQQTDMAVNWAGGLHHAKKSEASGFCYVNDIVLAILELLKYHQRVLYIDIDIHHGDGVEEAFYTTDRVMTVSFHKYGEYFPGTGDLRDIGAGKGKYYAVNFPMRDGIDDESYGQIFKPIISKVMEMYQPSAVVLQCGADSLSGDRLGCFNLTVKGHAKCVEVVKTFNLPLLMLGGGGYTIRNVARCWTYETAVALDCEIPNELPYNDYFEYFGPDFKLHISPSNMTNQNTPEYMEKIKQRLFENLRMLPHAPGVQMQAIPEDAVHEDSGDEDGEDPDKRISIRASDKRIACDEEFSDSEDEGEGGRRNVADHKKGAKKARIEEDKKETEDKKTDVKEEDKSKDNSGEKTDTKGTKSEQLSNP

[5] = molecular target: T2, Polyamine deacetylase HDAC10 (Homo sapiens, UniProt Q969S8); test: Inhibition of N-terminal FLAG-tagged recombinant human HDAC10 (2 to 631 residues) expressed in baculovirus sf9 insect cells expression system using Boc-Lys (Ac)-AMC as substrate incubated for 120 mins by fluorescence analysis
T2 sequence (Q969S8 whole entry): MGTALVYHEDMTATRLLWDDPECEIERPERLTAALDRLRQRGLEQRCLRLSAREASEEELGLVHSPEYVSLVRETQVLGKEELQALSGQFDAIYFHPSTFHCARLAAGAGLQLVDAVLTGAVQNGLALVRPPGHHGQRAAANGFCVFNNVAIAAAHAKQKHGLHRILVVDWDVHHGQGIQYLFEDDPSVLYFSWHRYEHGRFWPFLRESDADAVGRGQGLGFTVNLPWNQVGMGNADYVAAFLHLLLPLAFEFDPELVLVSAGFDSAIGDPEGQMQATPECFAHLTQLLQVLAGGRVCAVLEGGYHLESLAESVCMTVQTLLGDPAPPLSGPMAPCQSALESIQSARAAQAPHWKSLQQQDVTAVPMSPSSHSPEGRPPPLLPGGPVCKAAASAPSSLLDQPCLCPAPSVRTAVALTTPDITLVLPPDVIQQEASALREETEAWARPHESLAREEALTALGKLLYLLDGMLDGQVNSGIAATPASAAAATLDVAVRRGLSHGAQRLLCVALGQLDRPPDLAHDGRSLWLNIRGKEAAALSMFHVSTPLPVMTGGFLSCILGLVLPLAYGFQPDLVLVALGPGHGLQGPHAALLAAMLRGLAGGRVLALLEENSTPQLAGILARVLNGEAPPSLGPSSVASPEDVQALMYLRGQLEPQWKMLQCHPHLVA

[6] = molecular target: T3, Histone deacetylase 11 (Homo sapiens, UniProt Q96DB2); test: Inhibition of recombinant human full length HDAC11 using Boc-Lys (Tfa)-AMC as substrate incubated for 120 mins by fluorescence analysis
T3 sequence (Q96DB2 whole entry): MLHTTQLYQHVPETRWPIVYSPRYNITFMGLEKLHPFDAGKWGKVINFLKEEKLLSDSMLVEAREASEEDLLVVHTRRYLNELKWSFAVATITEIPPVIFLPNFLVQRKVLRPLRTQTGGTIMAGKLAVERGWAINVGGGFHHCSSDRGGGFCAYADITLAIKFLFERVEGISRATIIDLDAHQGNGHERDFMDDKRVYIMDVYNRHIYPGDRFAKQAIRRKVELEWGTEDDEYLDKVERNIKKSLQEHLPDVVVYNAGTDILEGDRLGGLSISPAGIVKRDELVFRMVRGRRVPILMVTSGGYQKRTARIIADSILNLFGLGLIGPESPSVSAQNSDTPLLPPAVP

[7] = molecular target: Histone deacetylase 4 (Homo sapiens, UniProt P56524); test: Inhibition of recombinant human HDAC4 using Boc-Lys (Ac)-AMC as substrate incubated for 120 mins by fluorescence analysis
Sequence of Histone deacetylase 4 (P56524 whole entry): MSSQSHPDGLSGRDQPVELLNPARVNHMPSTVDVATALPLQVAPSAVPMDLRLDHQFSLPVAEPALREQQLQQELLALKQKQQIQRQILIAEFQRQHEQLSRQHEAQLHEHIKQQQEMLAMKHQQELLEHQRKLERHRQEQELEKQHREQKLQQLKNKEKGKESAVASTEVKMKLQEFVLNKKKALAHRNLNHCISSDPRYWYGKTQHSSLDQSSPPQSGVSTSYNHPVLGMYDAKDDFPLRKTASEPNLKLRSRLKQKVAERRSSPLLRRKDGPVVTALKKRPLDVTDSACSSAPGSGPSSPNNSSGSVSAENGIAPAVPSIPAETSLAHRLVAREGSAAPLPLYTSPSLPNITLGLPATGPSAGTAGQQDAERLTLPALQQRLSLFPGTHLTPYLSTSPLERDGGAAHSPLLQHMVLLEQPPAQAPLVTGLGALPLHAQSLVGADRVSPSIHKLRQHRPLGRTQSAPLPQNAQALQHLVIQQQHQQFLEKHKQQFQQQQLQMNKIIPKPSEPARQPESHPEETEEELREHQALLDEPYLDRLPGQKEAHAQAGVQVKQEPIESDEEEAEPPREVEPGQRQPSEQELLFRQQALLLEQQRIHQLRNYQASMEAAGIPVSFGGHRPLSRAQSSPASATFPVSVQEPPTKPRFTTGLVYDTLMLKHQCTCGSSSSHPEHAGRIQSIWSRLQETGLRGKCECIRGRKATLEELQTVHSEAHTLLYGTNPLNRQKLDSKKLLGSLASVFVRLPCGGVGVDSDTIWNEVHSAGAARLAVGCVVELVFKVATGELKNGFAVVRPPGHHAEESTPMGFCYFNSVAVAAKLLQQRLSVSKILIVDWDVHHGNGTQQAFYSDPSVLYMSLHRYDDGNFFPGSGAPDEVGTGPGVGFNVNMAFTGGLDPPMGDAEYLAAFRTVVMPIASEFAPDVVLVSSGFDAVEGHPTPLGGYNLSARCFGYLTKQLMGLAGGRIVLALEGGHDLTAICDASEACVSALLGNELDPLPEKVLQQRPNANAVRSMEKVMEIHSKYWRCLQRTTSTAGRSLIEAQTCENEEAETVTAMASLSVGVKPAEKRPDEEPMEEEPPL

[8] = molecular target: T4, Histone deacetylase 7 (Homo sapiens, UniProt Q8WUI4); test: Inhibition of N-terminal GST-tagged recombinant human HDAC7 (518 to end residues) expressed in baculovirus expression system using Boc-Lys (Tfa)-AMC as substrate incubated for 120 mins by fluorescence analysis
T4 sequence (Q8WUI4 whole entry): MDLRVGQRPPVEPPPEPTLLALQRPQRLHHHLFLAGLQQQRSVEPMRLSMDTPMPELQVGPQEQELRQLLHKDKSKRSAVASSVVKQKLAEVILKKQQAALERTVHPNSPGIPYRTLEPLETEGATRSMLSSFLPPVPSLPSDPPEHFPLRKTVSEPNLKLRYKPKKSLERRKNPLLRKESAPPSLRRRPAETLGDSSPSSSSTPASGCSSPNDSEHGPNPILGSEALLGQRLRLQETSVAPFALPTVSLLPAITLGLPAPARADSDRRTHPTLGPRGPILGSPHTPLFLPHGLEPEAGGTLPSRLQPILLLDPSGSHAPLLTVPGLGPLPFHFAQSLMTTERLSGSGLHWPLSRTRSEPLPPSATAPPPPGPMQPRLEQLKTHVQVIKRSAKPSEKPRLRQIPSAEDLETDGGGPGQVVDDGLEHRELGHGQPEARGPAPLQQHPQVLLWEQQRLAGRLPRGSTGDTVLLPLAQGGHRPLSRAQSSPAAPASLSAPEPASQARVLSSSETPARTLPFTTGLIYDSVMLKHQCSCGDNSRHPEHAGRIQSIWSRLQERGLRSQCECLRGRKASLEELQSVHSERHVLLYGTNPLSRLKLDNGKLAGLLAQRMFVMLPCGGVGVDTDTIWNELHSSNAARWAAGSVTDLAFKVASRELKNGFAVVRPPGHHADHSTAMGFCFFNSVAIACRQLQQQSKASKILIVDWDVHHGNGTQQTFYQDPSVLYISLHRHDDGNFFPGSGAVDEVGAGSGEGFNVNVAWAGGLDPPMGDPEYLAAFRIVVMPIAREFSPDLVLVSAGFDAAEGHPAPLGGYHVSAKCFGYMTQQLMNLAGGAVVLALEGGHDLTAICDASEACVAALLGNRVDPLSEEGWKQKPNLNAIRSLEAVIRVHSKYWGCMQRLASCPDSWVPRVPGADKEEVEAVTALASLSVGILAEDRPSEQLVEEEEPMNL

[9] = Half life in human liver microsomes at 100 uM by LC-MS/MS analysis; format: ADME, Microsome

| Structure (SMILES) | IC50 [1] [nM] | further results |
| --- | --- | --- |
| COc1cc2c(cc1OCc1ccccc1)CN1C(=O)CC[C@H]1C(=O)N2Cc1ccc(C(=O)NO)cc1 | 21.2 | – |
| O=C(CCCCCCCN1C(=O)[C@@H]2CCCN2Cc2ccccc21)NO | 291 | – |
| COc1cc2c(cc1OCc1ccccc1)CN1C(=O)CC[C@H]1C(=O)N2CCCCCC(=O)NO | 17.4 | – |
| COc1cc2c(cc1O)CN1C(=O)CC[C@H]1C(=O)N2CCCCCC(=O)NO | 15.6 | – |
| O=C(CCCCCN1C(=O)[C@@H]2CCCN2Cc2ccccc21)NO | 8.45 | Ratio IC50 [2]: 51.7; IC50 [3]: 437 nM; IC50 [4]: 2680 nM; IC50 [5]: 961 nM; IC50 [6]: > 50 µM; IC50 [7]: 499 nM; IC50 [8]: 731 nM |
| COc1cc2c(cc1OCc1ccccc1)CN1C(=O)CC[C@H]1C(=O)N2Cc1ccc(CC(=O)NO)cc1 | 22.3 | – |
| COc1cc2c(cc1OCc1ccccc1)CN1C(=O)CC[C@H]1C(=O)N2CCCCCCC(=O)NO | 12.1 | – |
| O=C(O)Cc1ccccc1Nc1c(Cl)cccc1Cl [DICLOFENAC] | – | half-life at 100 µM [9]: 5.3 min |
| COc1cc2c(cc1OCc1ccccc1)CN1C(=O)CC[C@H]1C(=O)N2Cc1cccc(C(=O)NO)c1 | 181 | – |
| COc1cc2c(cc1O)CN1C(=O)CC[C@H]1C(=O)N2Cc1ccc(C(=O)NO)cc1 | 126 | – |
| COc1cc2c(cc1OCc1ccccc1)CN1C(=O)CC[C@H]1C(=O)N2Cc1ccccc1C(=O)NO | 204 | – |
